Assay results taken from ChEMBL document CHEMBL1201862, “PubChem BioAssay data set” (2004).
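Assay format: 96-well plates, 48-hour exposure. GI50: concentration for 50% inhibition of growth.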 Active and inactive are the calls of the source. Cut-off read from the data, not from the text of the source: active = GI50 up to about 1.1 µM and inactive = higher.

Tests used:
Experiment in all cases: NCI anticancer screen, dose series, 48 h
786-0 = test system: 786-0
A498 = test system: A498
A549 = test system: A549
ACHN = test system: ACHN
BT-549 = test system: BT-549
CAKI-1 = test system: CAKI-1
CCRF-CEM = test system: CCRF-CEM
COLO 205 = test system: COLO 205
DU-145 = test system: DU-145
EKVX = test system: EKVX
HCC 2998 = test system: HCC 2998
HCT-116 = test system: HCT-116
HCT-15 = test system: HCT-15
HL-60 = test system: HL-60
HOP-62 = test system: HOP-62
HOP-92 = test system: HOP-92
HT-29 = test system: HT-29
Hs-578T = test system: Hs-578T
IGROV-1 = test system: IGROV-1
K562 = test system: K562
KM12 = test system: KM12
LOX IMVI = test system: LOX IMVI
MCF7 = test system: MCF7
MDA-MB-231 = test system: MDA-MB-231
MDA-MB-435 = test system: MDA-MB-435
MDA-N = test system: MDA-N
MOLT-4 = test system: MOLT-4
Malme-3M = test system: Malme-3M
NCI-H226 = test system: NCI-H226
NCI-H23 = test system: NCI-H23
NCI-H460 = test system: NCI-H460
NCI-H522 = test system: NCI-H522
NCI/ADR-RES = test system: NCI/ADR-RES
OVCAR-3 = test system: OVCAR-3
OVCAR-4 = test system: OVCAR-4
OVCAR-5 = test system: OVCAR-5
OVCAR-8 = test system: OVCAR-8
PC-3 = test system: PC-3
RPMI-8226 = test system: RPMI-8226
RXF 393 = test system: RXF 393
SF-268 = test system: SF-268
SF-295 = test system: SF-295
SF-539 = test system: SF-539
SK-MEL-28 = test system: SK-MEL-28
SK-MEL-5 = test system: SK-MEL-5
SN12C = test system: SN12C
SNB-19 = test system: SNB-19
SNB-75 = test system: SNB-75
SR = test system: SR
SW-620 = test system: SW-620
TK-10 = test system: TK-10
U-251 = test system: U-251
UACC-257 = test system: UACC-257
UO-31 = test system: UO-31
M14 = test system: M14
SK-MEL-2 = test system: SK-MEL-2
SK-OV-3 = test system: SK-OV-3
T47D = test system: T47D
UACC-62 = test system: UACC-62

Oc1nc2ccccc2c(O)c1Cc1ccccc1
GI50 (786-0): > 100 µM (inactive) | GI50 (A498): > 100 µM (inactive) | GI50 (A549): > 100 µM (inactive) | GI50 (ACHN): > 100 µM (inactive) | GI50 (BT-549): > 100 µM (inactive) | GI50 (CAKI-1): > 100 µM (inactive) | GI50 (CCRF-CEM): > 100 µM (inactive) | GI50 (COLO 205): > 100 µM (inactive) | GI50 (DU-145): > 100 µM (inactive) | GI50 (EKVX): > 100 µM (inactive) | GI50 (HCC 2998): > 100 µM (inactive) | GI50 (HCT-116): > 100 µM (inactive) | GI50 (HCT-15): > 100 µM | GI50 (HL-60): > 100 µM (inactive) | GI50 (HOP-62): > 100 µM (inactive) | GI50 (HOP-92): > 100 µM (inactive) | GI50 (HT-29): > 100 µM (inactive) | GI50 (Hs-578T): > 100 µM (inactive) | GI50 (IGROV-1): > 100 µM (inactive) | GI50 (K562): > 100 µM (inactive) | GI50 (KM12): > 100 µM (inactive) | GI50 (LOX IMVI): > 100 µM (inactive) | GI50 (MCF7): > 100 µM (inactive) | GI50 (MDA-MB-231): > 100 µM (inactive) | GI50 (MDA-MB-435): > 100 µM (inactive) | GI50 (MDA-N): > 100 µM (inactive) | GI50 (MOLT-4): > 100 µM (inactive) | GI50 (Malme-3M): > 100 µM (inactive) | GI50 (NCI-H226): > 100 µM (inactive) | GI50 (NCI-H23): > 100 µM (inactive) | GI50 (NCI-H460): > 100 µM (inactive) | GI50 (NCI-H522): > 100 µM (inactive) | GI50 (NCI/ADR-RES): > 100 µM (inactive) | GI50 (OVCAR-3): > 100 µM (inactive) | GI50 (OVCAR-4): > 100 µM (inactive) | GI50 (OVCAR-5): > 100 µM (inactive) | GI50 (OVCAR-8): > 100 µM (inactive) | GI50 (PC-3): > 100 µM (inactive) | GI50 (RPMI-8226): > 100 µM (inactive) | GI50 (RXF 393): > 100 µM (inactive) | GI50 (SF-268): > 100 µM (inactive) | GI50 (SF-295): > 100 µM (inactive) | GI50 (SF-539): > 100 µM (inactive) | GI50 (SK-MEL-28): > 100 µM (inactive) | GI50 (SK-MEL-5): > 100 µM (inactive) | GI50 (SN12C): > 100 µM (inactive) | GI50 (SNB-19): > 100 µM (inactive) | GI50 (SNB-75): > 100 µM (inactive) | GI50 (SR): > 100 µM (inactive) | GI50 (SW-620): > 100 µM (inactive) | GI50 (TK-10): > 100 µM (inactive) | GI50 (U-251): > 100 µM (inactive) | GI50 (UACC-257): > 100 µM (inactive) | GI50 (UO-31): > 10 µM (inactive)

CCOC(=O)[C@@]1(C)CC(O)C(=O)N1C (stereo partly drawn)
GI50 (786-0): > 100 µM (inactive) | GI50 (A549): > 100 µM (inactive) | GI50 (ACHN): > 100 µM (inactive) | GI50 (BT-549): > 100 µM (inactive) | GI50 (CAKI-1): > 100 µM (inactive) | GI50 (CCRF-CEM): > 100 µM (inactive) | GI50 (COLO 205): > 100 µM (inactive) | GI50 (DU-145): > 100 µM (inactive) | GI50 (EKVX): > 100 µM (inactive) | GI50 (HCC 2998): > 100 µM (inactive) | GI50 (HCT-116): > 100 µM (inactive) | GI50 (HCT-15): > 100 µM | GI50 (HL-60): > 100 µM (inactive) | GI50 (HOP-62): > 100 µM (inactive) | GI50 (HOP-92): > 100 µM (inactive) | GI50 (HT-29): > 100 µM (inactive) | GI50 (Hs-578T): > 100 µM (inactive) | GI50 (IGROV-1): > 100 µM (inactive) | GI50 (KM12): > 100 µM (inactive) | GI50 (LOX IMVI): > 100 µM (inactive) | GI50 (M14): > 100 µM (inactive) | GI50 (MCF7): > 100 µM (inactive) | GI50 (MDA-MB-231): > 100 µM (inactive) | GI50 (MDA-MB-435): > 100 µM (inactive) | GI50 (MOLT-4): > 100 µM (inactive) | GI50 (Malme-3M): > 100 µM (inactive) | GI50 (NCI-H226): > 100 µM (inactive) | GI50 (NCI-H23): > 100 µM (inactive) | GI50 (NCI-H522): > 100 µM (inactive) | GI50 (NCI/ADR-RES): > 100 µM (inactive) | GI50 (OVCAR-3): > 100 µM (inactive) | GI50 (OVCAR-4): > 100 µM (inactive) | GI50 (OVCAR-5): > 100 µM (inactive) | GI50 (OVCAR-8): > 100 µM (inactive) | GI50 (PC-3): > 100 µM (inactive) | GI50 (RPMI-8226): > 100 µM (inactive) | GI50 (RXF 393): > 100 µM (inactive) | GI50 (SF-268): > 100 µM (inactive) | GI50 (SF-295): > 100 µM (inactive) | GI50 (SF-539): > 100 µM (inactive) | GI50 (SK-MEL-28): > 100 µM (inactive) | GI50 (SK-MEL-2): > 100 µM (inactive) | GI50 (SK-MEL-5): > 100 µM (inactive) | GI50 (SK-OV-3): > 100 µM (inactive) | GI50 (SN12C): > 100 µM (inactive) | GI50 (SNB-19): > 100 µM (inactive) | GI50 (SR): > 100 µM (inactive) | GI50 (SW-620): > 100 µM (inactive) | GI50 (T47D): > 100 µM (inactive) | GI50 (TK-10): > 100 µM (inactive) | GI50 (U-251): > 100 µM (inactive) | GI50 (UACC-257): > 100 µM (inactive) | GI50 (UACC-62): > 100 µM (inactive) | GI50 (UO-31): > 100 µM (inactive)

COc1cc2c(cc1OCCN1CCN(CCOc3cc4c(cc3OC)C(=O)N3CCC[C@H]3C=N4)CC1)N=C[C@@H]1CCCN1C2=O
GI50 (786-0): 17.8 µM (inactive) | GI50 (A498): 37.1 µM (inactive) | GI50 (A549): > 88.9 µM (inactive) | GI50 (ACHN): > 39.1 µM (inactive) | GI50 (BT-549): 21.5 µM (inactive) | GI50 (CAKI-1): 14 µM (inactive) | GI50 (COLO 205): 24 µM (inactive) | GI50 (DU-145): 37.5 µM (inactive) | GI50 (EKVX): > 96.6 µM (inactive) | GI50 (HCT-116): 29.5 µM (inactive) | GI50 (HCT-15): > 64.1 µM | GI50 (HL-60): 4.3 µM (inactive) | GI50 (HOP-62): 30.5 µM (inactive) | GI50 (HOP-92): 0.906 µM (active) | GI50 (HT-29): 36 µM (inactive) | GI50 (Hs-578T): 41.6 µM (inactive) | GI50 (IGROV-1): 33.5 µM (inactive) | GI50 (K562): 15 µM (inactive) | GI50 (KM12): 30.8 µM (inactive) | GI50 (M14): 25.1 µM (inactive) | GI50 (MCF7): 18.2 µM (inactive) | GI50 (MDA-MB-231): 17.6 µM (inactive) | GI50 (MDA-MB-435): 20.8 µM (inactive) | GI50 (MOLT-4): 2.06 µM (inactive) | GI50 (Malme-3M): 9.14 µM (inactive) | GI50 (NCI-H226): 19.4 µM (inactive) | GI50 (NCI-H23): 17.1 µM (inactive) | GI50 (NCI-H460): 13.5 µM (inactive) | GI50 (NCI-H522): 12.1 µM (inactive) | GI50 (NCI/ADR-RES): > 100 µM (inactive) | GI50 (OVCAR-3): 25.9 µM (inactive) | GI50 (OVCAR-4): > 100 µM (inactive) | GI50 (OVCAR-5): 26.2 µM (inactive) | GI50 (OVCAR-8): 35.3 µM (inactive) | GI50 (PC-3): 25.9 µM (inactive) | GI50 (RPMI-8226): 1.56 µM (inactive) | GI50 (RXF 393): 26.1 µM (inactive) | GI50 (SF-268): 13.1 µM (inactive) | GI50 (SF-295): 8.83 µM (inactive) | GI50 (SF-539): 10.2 µM (inactive) | GI50 (SK-MEL-28): 60 µM (inactive) | GI50 (SK-MEL-2): 26 µM (inactive) | GI50 (SK-MEL-5): 17.8 µM (inactive) | GI50 (SK-OV-3): > 100 µM (inactive) | GI50 (SN12C): 9.46 µM (inactive) | GI50 (SNB-19): 35.5 µM (inactive) | GI50 (SNB-75): > 76.9 µM (inactive) | GI50 (SR): 0.362 µM (active) | GI50 (SW-620): 19.2 µM (inactive) | GI50 (T47D): 25.4 µM (inactive) | GI50 (TK-10): 23.8 µM (inactive) | GI50 (U-251): 24.8 µM (inactive) | GI50 (UACC-257): > 56.6 µM (inactive) | GI50 (UACC-62): 14.3 µM (inactive) | GI50 (UO-31): 35.8 µM (inactive)
